Data: paper PMC5218480 (PLoS ONE, 2017)

Tested on: MV-4-11 cells
Assay: Gene expression microarray analysis (Affymetrix PrimeView) and GSEA
Format: cell-based, human
Set-up: RFU PODN (11730768_x_at) / Fold change /veh PODN (11730768_x_at) / RFU LINC00158 (11744669_a_at) / Fold change /veh LINC00158 (11744669_a_at) / RFU DUSP10 (11751237_a_at) / Fold change /veh DUSP10 (11751237_a_at) / RFU ID3 (11757404_x_at) / Fold change /veh ID3 (11757404_x_at) / RFU PLEKHG5 (11737974_s_at) / Fold change /veh PLEKHG5 (11737974_s_at) / RFU LRRC4B (11730491_at) / Fold change /veh LRRC4B (11730491_at) / RFU GIMAP4 (11747438_a_at) / Fold change /veh GIMAP4 (11747438_a_at) / RFU KRT8 (11758183_x_at) / Fold change /veh KRT8 (11758183_x_at) / RFU CNN1 (11734310_a_at) / Fold change /veh CNN1 (11734310_a_at) / RFU VPS37D (11726825_at) / Fold change /veh VPS37D (11726825_at) / RFU C10orf10 (11716522_x_at) / Fold change /veh C10orf10 (11716522_x_at) / RFU KIR2DL2 /// KIR2DL4 /// KIR2DL5A /// KIR2DL5B /// KIR2DS1 /// KIR2DS2 /// KIR2DS3 /// KIR2DS4 /// KIR3DL3 /// KIR3DL3 /// KIR3DS1 (11738374_at) / Fold change /veh KIR2DL2 /// KIR2DL4 /// KIR2DL5A /// KIR2DL5B /// KIR2DS1 /// KIR2DS2 /// KIR2DS3 /// KIR2DS4 /// KIR3DL3 /// KIR3DL3 /// KIR3DS1 (11738374_at) / RFU C1QL1 (11718748_at) / Fold change /veh C1QL1 (11718748_at) / RFU TMPRSS4 (11747572_a_at) / Fold change /veh TMPRSS4 (11747572_a_at) / RFU HAMP (11756126_x_at) / Fold change /veh HAMP (11756126_x_at) / RFU RNFT2 (11725882_a_at) / Fold change /veh RNFT2 (11725882_a_at) / RFU NR4A2 (11747474_a_at) / Fold change /veh NR4A2 (11747474_a_at) / RFU ABCC12 (11746883_a_at) / Fold change /veh ABCC12 (11746883_a_at) / RFU TMEM136 (11760407_x_at) / Fold change /veh TMEM136 (11760407_x_at) / RFU CLDN22 /// WWC2 (11732394_at) / Fold change /veh CLDN22 /// WWC2 (11732394_at) / RFU HLA-DPB1 (11760878_x_at) / Fold change /veh HLA-DPB1 (11760878_x_at) / RFU SPINT1 (11716480_a_at) / Fold change /veh SPINT1 (11716480_a_at) / RFU GAP43 (11754022_s_at) / Fold change /veh GAP43 (11754022_s_at) / RFU A4GNT (11735810_at) / Fold change /veh A4GNT (11735810_at) / RFU PRB3 (11715151_x_at) / Fold change /veh PRB3 (11715151_x_at) / RFU TUBB4B (11761932_at) / Fold change /veh TUBB4B (11761932_at) / RFU CAPN14 (11732068_a_at) / Fold change /veh CAPN14 (11732068_a_at) / RFU TMCC2 (11721928_a_at) / Fold change /veh TMCC2 (11721928_a_at) / RFU IRGQ (11745062_a_at) / Fold change /veh IRGQ (11745062_a_at) / RFU FAM174B (11720279_a_at) / Fold change /veh FAM174B (11720279_a_at) / RFU TMPRSS4 (11748680_a_at) / Fold change /veh TMPRSS4 (11748680_a_at) / RFU FAM212B (11763350_a_at) / Fold change /veh FAM212B (11763350_a_at) / RFU PLEKHG5 (11743358_a_at) / Fold change /veh PLEKHG5 (11743358_a_at) / RFU ZSCAN30 (11745921_a_at) / Fold change /veh ZSCAN30 (11745921_a_at) / RFU CMKLR1 (11741424_a_at) / Fold change /veh CMKLR1 (11741424_a_at) / RFU LOC101060620 /// MAPK8IP1 (11723275_at) / Fold change /veh LOC101060620 /// MAPK8IP1 (11723275_at) / RFU SPTSSB (11747773_x_at) / Fold change /veh SPTSSB (11747773_x_at) / RFU PRSS12 (11739890_at) / Fold change /veh PRSS12 (11739890_at) / RFU BIN1 (11741810_x_at) / Fold change /veh BIN1 (11741810_x_at) / RFU WNT11 (11732464_a_at) / Fold change /veh WNT11 (11732464_a_at) / RFU C10orf10 (11716521_a_at) / Fold change /veh C10orf10 (11716521_a_at) / RFU C5orf56 (11738089_at) / Fold change /veh C5orf56 (11738089_at) / RFU CYB561 (11721691_x_at) / Fold change /veh CYB561 (11721691_x_at) / RFU ANKRD19P (11752326_a_at) / Fold change /veh ANKRD19P (11752326_a_at) / RFU OR2T12 /// OR2T33 /// OR2T8 (11738714_s_at) / Fold change /veh OR2T12 /// OR2T33 /// OR2T8 (11738714_s_at) / RFU VCAN (11748164_a_at) / Fold change /veh VCAN (11748164_a_at) / RFU JSRP1 (11732532_at) / Fold change /veh JSRP1 (11732532_at) / RFU KRTAP10-11 (11738290_x_at) / Fold change /veh KRTAP10-11 (11738290_x_at) / RFU MYO3A (11730013_a_at) / Fold change /veh MYO3A (11730013_a_at) / RFU EBF3 (11725865_a_at) / Fold change /veh EBF3 (11725865_a_at) / RFU CAMK2N1 (11719241_x_at) / Fold change /veh CAMK2N1 (11719241_x_at) / RFU C5orf56 (11738088_a_at) / Fold change /veh C5orf56 (11738088_a_at) / RFU OLFML3 (11715873_a_at) / Fold change /veh OLFML3 (11715873_a_at) / RFU LOC100653217 /// NTM (11731650_a_at) / Fold change /veh LOC100653217 /// NTM (11731650_a_at) / RFU MAPK11 (11762145_a_at) / Fold change /veh MAPK11 (11762145_a_at) / RFU FIZ1 (11724087_x_at) / Fold change /veh FIZ1 (11724087_x_at) / RFU OASL (11726364_x_at) / Fold change /veh OASL (11726364_x_at) / RFU SOX15 (11748057_x_at) / Fold change /veh SOX15 (11748057_x_at) / RFU CD79A (11719716_a_at) / Fold change /veh CD79A (11719716_a_at) / RFU HIST1H1D (11736915_at) / Fold change /veh HIST1H1D (11736915_at) / RFU CASKIN2 (11723855_a_at) / Fold change /veh CASKIN2 (11723855_a_at) / RFU LOC730098 (11760151_x_at) / Fold change /veh LOC730098 (11760151_x_at) / RFU OR4N2 (11742367_at) / Fold change /veh OR4N2 (11742367_at) / RFU PRRT2 (11749266_a_at) / Fold change /veh PRRT2 (11749266_a_at) / RFU SNX32 (11753110_a_at) / Fold change /veh SNX32 (11753110_a_at) / RFU CDHR5 (11726645_a_at) / Fold change /veh CDHR5 (11726645_a_at) / RFU RCAN1 (11760418_a_at) / Fold change /veh RCAN1 (11760418_a_at) / RFU FAM167A (11723789_a_at) / Fold change /veh FAM167A (11723789_a_at) / RFU FAM26E (11764081_at) / Fold change /veh FAM26E (11764081_at) / RFU ISYNA1 (11749810_s_at) / Fold change /veh ISYNA1 (11749810_s_at) / RFU ACY1 (11761880_at) / Fold change /veh ACY1 (11761880_at) / RFU 11764098_at / Fold change /veh 11764098_at / RFU SAMD14 (11745864_x_at) / Fold change /veh SAMD14 (11745864_x_at) / RFU NPB (11741838_a_at) / Fold change /veh NPB (11741838_a_at) / RFU TMPRSS6 (11731388_a_at) / Fold change /veh TMPRSS6 (11731388_a_at) / RFU KRTAP10-2 (11738614_at) / Fold change /veh KRTAP10-2 (11738614_at) / RFU ARHGAP8 /// PRR5-ARHGAP8 (11727945_x_at) / Fold change /veh ARHGAP8 /// PRR5-ARHGAP8 (11727945_x_at) / RFU KRTAP5-7 /// NADSYN1 (11734609_at) / Fold change /veh KRTAP5-7 /// NADSYN1 (11734609_at) / RFU RASL12 (11751679_a_at) / Fold change /veh RASL12 (11751679_a_at) / RFU CDKN2B (11736163_a_at) / Fold change /veh CDKN2B (11736163_a_at) / RFU PRF1 (11729649_at) / Fold change /veh PRF1 (11729649_at) / RFU, ZNF638 /// ZNF638-IT1 / Fold change vs veh, ZNF638 /// ZNF638-IT1 / RFU, PANK3 / Fold change vs veh, PANK3 / RFU, SH3YL1 / Fold change vs veh, SH3YL1 / RFU, ZEB2 / Fold change vs veh, ZEB2 / RFU, NRIP1 / Fold change vs veh, NRIP1 / RFU, PTTG1IP / Fold change vs veh, PTTG1IP / RFU, CAPN2 / Fold change vs veh, CAPN2 / RFU, MED14 / Fold change vs veh, MED14 / RFU, SNORA58 / Fold change vs veh, SNORA58 / RFU, C1orf63 / Fold change vs veh, C1orf63 / RFU, LRRFIP1 / Fold change vs veh, LRRFIP1 / RFU, NDUFAF7 / Fold change vs veh, NDUFAF7 / RFU, SLC12A2 / Fold change vs veh, SLC12A2 / RFU, IBTK / Fold change vs veh, IBTK / RFU, ESF1 / Fold change vs veh, ESF1 / Fold change vs veh, TMEM50B / RFU, TAOK1 / Fold change vs veh, TAOK1 / RFU, ACBD3 / Fold change vs veh, ACBD3 / RFU, TMA16 / Fold change vs veh, TMA16 / RFU, RWDD3 / Fold change vs veh, RWDD3 / RFU, BCAT1 / Fold change vs veh, BCAT1 / RFU, EDEM3 / Fold change vs veh, EDEM3 / RFU, TMEM33 / Fold change vs veh, TMEM33 / RFU, WDR75 / Fold change vs veh, WDR75 / RFU, AHCTF1 / Fold change vs veh, AHCTF1 / RFU, TFRC / Fold change vs veh, TFRC / RFU, ZDHHC17 / Fold change vs veh, ZDHHC17 / RFU, NOM1 / Fold change vs veh, NOM1 / RFU, ARL8B / Fold change vs veh, ARL8B / RFU, ZBTB11 / Fold change vs veh, ZBTB11 / RFU, TAMM41 / Fold change vs veh, TAMM41 / RFU, KIAA1704 /// LOC100996395 / Fold change vs veh, KIAA1704 /// LOC100996395 / RFU, ING1 / Fold change vs veh, ING1 / RFU, TRMT61B / Fold change vs veh, TRMT61B / RFU, FUBP3 / Fold change vs veh, FUBP3 / RFU, TP53 / Fold change vs veh, TP53 / RFU, TNKS2 / Fold change vs veh, TNKS2 / RFU, ZFP14 / Fold change vs veh, ZFP14 / RFU, ACTR2 / Fold change vs veh, ACTR2 / RFU, PPP3R1 / Fold change vs veh, PPP3R1 / RFU, PIK3R1 / Fold change vs veh, PIK3R1 / RFU, HNRNPA1 / Fold change vs veh, HNRNPA1 / RFU, RNF170 / Fold change vs veh, RNF170 / RFU, ZNF28 / Fold change vs veh, ZNF28 / RFU, RNGTT / Fold change vs veh, RNGTT / RFU, OGT / Fold change vs veh, OGT / RFU, BRD1 / Fold change vs veh, BRD1 / RFU, MARS / Fold change vs veh, MARS / RFU, ZNF655 / Fold change vs veh, ZNF655 / RFU, FAHD1 / Fold change vs veh, FAHD1 / RFU, BDP1 / Fold change vs veh, BDP1 / RFU, LRRCC1 / Fold change vs veh, LRRCC1 / RFU, ARID1A / Fold change vs veh, ARID1A / RFU, ZNF146 / Fold change vs veh, ZNF146 / RFU, ZNF330 / Fold change vs veh, ZNF330 / RFU, GPN3 / Fold change vs veh, GPN3 / RFU, C9orf123 / Fold change vs veh, C9orf123 / RFU, N4BP2L2 / Fold change vs veh, N4BP2L2 / RFU, ARFIP1 / Fold change vs veh, ARFIP1 / RFU, FAM179B / Fold change vs veh, FAM179B / RFU, BCL10 / Fold change vs veh, BCL10 / RFU, UHRF1BP1L / Fold change vs veh, UHRF1BP1L / RFU, BET1 / Fold change vs veh, BET1 / RFU, CNOT2 / Fold change vs veh, CNOT2 / RFU, ZNF268 / Fold change vs veh, ZNF268 / Fold change vs veh, ZNF507 / RFU, DGCR2 / Fold change vs veh, DGCR2 / RFU, WDSUB1 / Fold change vs veh, WDSUB1 / Fold change vs veh, HSP90B1 /// MIR3652 / RFU, ADSS / Fold change vs veh, ADSS / RFU, GK / Fold change vs veh, GK / RFU, ZNF148 / Fold change vs veh, ZNF148 / RFU, TAF9 / Fold change vs veh, TAF9 / RFU, SLC1A5 / Fold change vs veh, SLC1A5 / RFU, SLMO2 / Fold change vs veh, SLMO2 / RFU, ABCC4 / Fold change vs veh, ABCC4 / RFU, LOC101060439 /// RAP1B / Fold change vs veh, LOC101060439 /// RAP1B / RFU, RFX7 / Fold change vs veh, RFX7 / RFU, GTPBP10 / Fold change vs veh, GTPBP10 / RFU, CNEP1R1 / Fold change vs veh, CNEP1R1 / RFU, BIVM-ERCC5 /// ERCC5 / Fold change vs veh, BIVM-ERCC5 /// ERCC5 / RFU, ILF3 / Fold change vs veh, ILF3 / RFU 11762660_at / Fold change /veh 11762660_at / RFU VCAN (11757783_s_at) / Fold change /veh VCAN (11757783_s_at) / RFU DDX43 (11728927_at) / Fold change /veh DDX43 (11728927_at) / RFU KRT8 (11758188_x_at) / Fold change /veh KRT8 (11758188_x_at) / RFU NKD1 (11759106_at) / Fold change /veh NKD1 (11759106_at) / RFU SRD5A1 (11742802_a_at) / Fold change /veh SRD5A1 (11742802_a_at) / RFU TPSAB1 /// TPSB2 (11721975_s_at) / Fold change /veh TPSAB1 /// TPSB2 (11721975_s_at) / RFU GSTM3 (11746129_a_at) / Fold change /veh GSTM3 (11746129_a_at) / RFU IL23R (11737362_x_at) / Fold change /veh IL23R (11737362_x_at) / RFU TMEM51 (11727254_a_at) / Fold change /veh TMEM51 (11727254_a_at) / RFU PIWIL2 (11732686_x_at) / Fold change /veh PIWIL2 (11732686_x_at) / RFU ORM1 (11744905_x_at) / Fold change /veh ORM1 (11744905_x_at) / RFU CCDC152 (11743942_at) / Fold change /veh CCDC152 (11743942_at) / RFU ECM1 (11717891_a_at) / Fold change /veh ECM1 (11717891_a_at) / RFU IL23R (11748794_a_at) / Fold change /veh IL23R (11748794_a_at) / RFU TNFAIP8L3 (11732012_x_at) / Fold change /veh TNFAIP8L3 (11732012_x_at) / RFU MBOAT4 (11741988_at) / Fold change /veh MBOAT4 (11741988_at) / RFU 11764193_at / Fold change /veh 11764193_at / RFU TMEM53 (11763286_at) / Fold change /veh TMEM53 (11763286_at) / RFU MAGEB2 (11727129_at) / Fold change /veh MAGEB2 (11727129_at) / RFU TMEM200A (11744735_a_at) / Fold change /veh TMEM200A (11744735_a_at) / RFU CCDC152 (11751479_a_at) / Fold change /veh CCDC152 (11751479_a_at) / RFU FAM211A (11726209_a_at) / Fold change /veh FAM211A (11726209_a_at) / RFU RGS16 (11746705_a_at) / Fold change /veh RGS16 (11746705_a_at) / RFU VCAN (11755009_s_at) / Fold change /veh VCAN (11755009_s_at) / RFU RHOB (11743442_s_at) / Fold change /veh RHOB (11743442_s_at) / RFU RGS16 (11720943_a_at) / Fold change /veh RGS16 (11720943_a_at) / RFU RGS16 (11720944_at) / Fold change /veh RGS16 (11720944_at) / RFU, VPS4B / Fold change vs veh, VPS4B / RFU, CREB1 / Fold change vs veh, CREB1 / RFU, DNAJC13 / Fold change vs veh, DNAJC13 / RFU, GNAQ / Fold change vs veh, GNAQ / RFU, CDK5R1 / Fold change vs veh, CDK5R1 / RFU, ZRANB3 / Fold change vs veh, ZRANB3 / RFU, CUL4A / Fold change vs veh, CUL4A / RFU, CCNY / Fold change vs veh, CCNY / RFU, UFL1 / Fold change vs veh, UFL1 / RFU, COG3 / Fold change vs veh, COG3 / RFU, DIAPH2 / Fold change vs veh, DIAPH2 / RFU, SKA2 / Fold change vs veh, SKA2 / RFU, AFF3 / Fold change vs veh, AFF3 / RFU, LMF1 / Fold change vs veh, LMF1 / RFU, IPO11 / Fold change vs veh, IPO11 / RFU, DFFB / Fold change vs veh, DFFB / RFU, FOXP1 / Fold change vs veh, FOXP1 / RFU, CARD8 / Fold change vs veh, CARD8 / RFU, STRN3 / Fold change vs veh, STRN3 / RFU, ADK / Fold change vs veh, ADK / RFU, RASSF2 / Fold change vs veh, RASSF2 / RFU, WIPF1 / Fold change vs veh, WIPF1 / RFU, LARP1B / Fold change vs veh, LARP1B / RFU, RASA1 / Fold change vs veh, RASA1 / RFU, RB1 / Fold change vs veh, RB1 / RFU, PPFIA1 / Fold change vs veh, PPFIA1 / RFU, MAT2A / Fold change vs veh, MAT2A / RFU, CCT5 / Fold change vs veh, CCT5 / RFU, WDR92 / Fold change vs veh, WDR92 / RFU, CUX1 / Fold change vs veh, CUX1 / RFU, TTC7A / Fold change vs veh, TTC7A / RFU, TMEM135 / Fold change vs veh, TMEM135 / RFU, DEPTOR / Fold change vs veh, DEPTOR / RFU, CPM / Fold change vs veh, CPM / RFU, DNAJB6 / Fold change vs veh, DNAJB6 / RFU, CACNA2D3 / Fold change vs veh, CACNA2D3 / RFU, DTX4 / Fold change vs veh, DTX4 / RFU, TFCP2 / Fold change vs veh, TFCP2 / RFU, GMCL1 /// GMCL1P1 / Fold change vs veh, GMCL1 /// GMCL1P1 / RFU, AEBP2 / Fold change vs veh, AEBP2 / RFU, SNHG1 /// SNORD22 /// SNORD25 /// SNORD26 /// SNORD27 /// SNORD28 /// SNORD29 /// SNORD31 / Fold change vs veh, SNHG1 /// SNORD22 /// SNORD25 /// SNORD26 /// SNORD27 /// SNORD28 /// SNORD29 /// SNORD31 / Fold change (Aza/veh), C12orf56 (ProbeSet 11735607_a_at) / Fold change (ACY-1035/veh), C12orf56 (ProbeSet 11735607_a_at) / Fold change (Aza/veh), FGFR1OP (ProbeSet 11751329_s_at) / Fold change (ACY-1035/veh), FGFR1OP (ProbeSet 11751329_s_at) / Fold change (Aza/veh), VPS36 (ProbeSet 11739960_a_at) / Fold change (ACY-1035/veh), VPS36 (ProbeSet 11739960_a_at) / RFU SYPL1 (11715823_x_at) / Fold change /veh SYPL1 (11715823_x_at) / RFU IGFBP7 (11715501_s_at) / Fold change /veh IGFBP7 (11715501_s_at) / RFU REEP3 (11722064_at) / Fold change /veh REEP3 (11722064_at) / RFU IGLL1 (11728026_x_at) / Fold change /veh IGLL1 (11728026_x_at): dose or concentration left out as unconfirmed
Conditions: ProbeSet 11744854_x_at; LIST B

## Nc1ccc(-c2cccs2)cc1NC(=O)c1ccc2c(c1)cc(C1CC1)n2CCN1CCOCC1 [ACY-1035]
  Fold change vs veh, ZNF28: 0.85
